We go through 23 compounds from patent publication US8748461B2, “Metalloenzyme inhibitor compounds” (Viamet Pharmaceuticals, Inc., priority 2011, dated 2014).

The test system of experiment [1] is Puccinia recondita tritici = Puccinia triticina. The experiment can be described thus: Fungicidal activity vs. leaf rust on wheat plants. Format: in vivo. The conditions noted are these: 50 ppm spray on wheat (Yuma), inoculated the following day, evaluated 7-9 days later; read-out: Puccinia Rating (% Disease Control @ 50 ppm). The source says: D. Evaluation of Fungicidal Activity Vs. Leaf Rust (Causal Agent Puccinia recondita Tritici=Puccinia triticina; Bayer code PUCCRT). […] Each pot contained 3-8 seedlings. These plants were sprayed until wet with the formulated test compounds. The compounds were formulated at 50 ppm in 10 vol. % acetone plus 90 vol. % Triton X water (deionized water 99.99 wt %+0.01 wt % Triton X100), giving a “formulated test compound.” Formulated test compounds were applied to plants using a turn table sprayer fitted with two opposing air atomization nozzles which delivered approximately 1500 L/ha of spray volume. On the following day, the leaves were inoculated with an aqueous spore suspension of Puccinia recondita tritici and the plants were kept in high humidity overnight to permit spores to germinate and infect the leaf. The plants were then transferred to a greenhouse until disease developed on untreated control plants. Disease severity was evaluated 7-9 days later, depending on the speed of disease development. In each case of Table 3, the Puccinia rating scale is as follows: […]

The subject of experiment [2] is Septoria tritici (ATCC 26517). The experiment can be described thus: Minimum Inhibitory Concentration (MIC) vs. Septoria tritici. Format: cell-based. The settings on record: Zymoseptoria tritici, ATCC26517, 168 h; 50% reduction in growth of S. tritici; 22° C., seven days; read-out: Septoria Rating (MIC). The procedure: C. Minimum Inhibitory Concentration (MIC) vs. Septoria tritici Compounds were assessed for their ability to inhibit the growth of a common strain of the fungal plant pathogen Septoria tritici (ATCC 26517) using a procedure based on a Clinical and Laboratory Standards Institute (CLSI) microdilution assay protocol for filamentous fungi. Stock solutions of the test compounds and standards were prepared in DMSO at 6400 μg/mL. Each stock solution was used to prepare a 2-fold dilution series ranging from 16 to 0.016 μg/mL (total of 11 compound concentrations) in RPMI-1640 (Roswell Park Memorial Institute) medium containing 3-(N-morpholino)propanesulfonic acid (MOPS) buffer and 2% DMSO. A 100 μL aliquot of the dilutions was added to columns 1 (16 μg/mL compound) through 11 (0.016 μg/mL compound) of a 96-well microtiter plate. This format was replicated in a second row of the microtiter plate. Thus, each microtiter plate could include 11 concentrations of four test or control compounds replicated twice. A 100 μL aliquot of RPMI-1640/MOPS/2% DMSO medium was added to column 12 (no compound control) of the microtiter plate. A fresh culture of S. tritici was used to prepare a solution of approximately 5×10^4 colony-forming units per milliliter (cfu/mL) in RPMI/MOPS medium without DMSO. A 100 μL aliquot of this solution was added to all 96 wells in the microtiter plate. […] The assay plates were incubated at 22° C. for seven days in the dark without shaking. […] In each case of Table 3, the Septoria rating scale is as follows: […]

Molecules are shown by their SMILES. Values after ≈ are worked out from the molar mass of the structure shown.

What is called MIC is the lowest concentration that inhibits growth of the organism. As for `OC(Cn1cnnn1)(c1ccc(Cl)cc1F)C(F)(F)c1ccc(OCC(F)(F)F)cn1` (stereo not shown) [Compound 71, 2-(4-Chloro-2-fluorophenyl)-1,1-difluoro-3-(1H-tetrazol-1-yl)-1-(5-(2,2,2-trifluoroethoxy)pyridin-2-yl)propan-2-ol], the pest or weed control at 50 ppm in experiment [1] lay within 80 to 100%. The MIC in experiment [2] is at most 0.5 µg/mL.

As to `OC(Cn1cnnn1)(c1ccc(F)cc1F)C(F)(F)c1ccc(Oc2ccccc2)cn1` (stereo not shown) [Compound 11, 2-(2,4-Difluorophenyl)-1,1-difluoro-1-(5-phenoxypyridin-2-yl)-3-(1H-tetrazol-1-yl)propan-2-ol], in experiment [1], the pest or weed control at 50 ppm is 80 to 100%. Further, the MIC in experiment [2] was at most 0.5 µg/mL. On to `OC(Cn1cnnn1)(c1ccc(F)cc1F)C(F)(F)c1ccc(OCc2ccnc(Cl)c2)cn1` (stereo not shown) [Compound 117, 1-(5-((2-chloropyridin-4-yl)methoxy)pyridin-2-yl)-2-(2,4-difluorophenyl)-1,1-difluoro-3-(1H-tetrazol-1-yl)propan-2-ol], for which, in experiment [1], the pest or weed control at 50 ppm is 80 to 100%. In experiment [2], the MIC was at most 0.5 µg/mL. As for `N#Cc1cnc(Oc2ccc(C(F)(F)C(O)(Cn3cnnn3)c3ccc(F)cc3F)nc2)s1` (stereo not shown) [Compound 107, 2-((6-(2-(2,4-difluorophenyl)-1,1-difluoro-2-hydroxy-3-(1H-tetrazol-1-yl)propyl)pyridin-3-yl)oxy)thiazole-5-carbonitrile], in experiment [1], the pest or weed control at 50 ppm was below 40%. Further, the MIC in experiment [2] was at most 0.5 µg/mL. Regarding `OC(Cn1cnnn1)(c1ccc(F)cc1F)C(F)(F)c1ccc(OCc2ccc(C(F)(F)F)cn2)cn1` (stereo not shown) [Compound 114, 2-(2,4-difluorophenyl)-1,1-difluoro-3-(1H-tetrazol-1-yl)-1-(5-((5-(trifluoromethyl)pyridin-2-yl)methoxy)pyridin-2-yl)propan-2-ol], the pest or weed control at 50 ppm in experiment [1] was in the range of 80 to 100%. The MIC in experiment [2] was at most 0.5 µg/mL.

Turning to `OC(Cn1cnnn1)(c1ccc(F)cc1F)C(F)(F)c1ccc(OCC(F)(F)c2ccccc2)cn1` (stereo not shown) [Compound 119, 1-(5-(2,2-difluoro-2-phenylethoxy)pyridin-2-yl)-2-(2,4-difluorophenyl)-1,1-difluoro-3-(1H-tetrazol-1-yl)propan-2-ol], the pest or weed control at 50 ppm in experiment [1] is 80 to 100%. Moreover, the MIC in experiment [2] was at most 0.5 µg/mL. In the same order, the values of `OC(Cn1cnnn1)(c1ccc(F)cc1F)C(F)(F)c1ccc(OCc2ccc(Cl)nc2)cn1` (stereo not shown) [Compound 116, 1-(5-((6-chloropyridin-3-yl)methoxy)pyridin-2-yl)-2-(2,4-difluorophenyl)-1,1-difluoro-3-(1H-tetrazol-1-yl)propan-2-ol] are 80 to 100% and at most 0.5 µg/mL.

Take `COc1cccc(COc2ccc(C(F)(F)C(O)(Cn3cnnn3)c3ccc(F)cc3F)nc2)c1` (stereo not shown) [Compound 34, 2-(2,4-Difluorophenyl)-1,1-difluoro-1-(5-((3-methoxybenzyl)oxy)pyridin-2-yl)-3-(1H-tetrazol-1-yl)propan-2-ol]: the pest or weed control at 50 ppm in experiment [1] lay within 80 to 100%. Also, the MIC in experiment [2] was at most 0.5 µg/mL. In the same order, the values of `N#Cc1ncc(Oc2ccc(C(F)(F)C(O)(Cn3cnnn3)c3ccc(F)cc3F)nc2)cn1` (stereo not shown) [Compound 100, 5-((6-(2-(2,4-difluorophenyl)-1,1-difluoro-2-hydroxy-3-(1H-tetrazol-1-yl)propyl)pyridin-3-yl)oxy)pyrimidine-2-carbonitrile] are 60 to 79% and 0.5 to 1.5 µg/mL (≈ 1.06 to 3.18 µM). For the compound `COc1ccc(COc2ccc(C(F)(F)C(O)(Cn3cnnn3)c3ccc(F)cc3F)nc2)cc1` (stereo not shown) [Compound 41, 2-(2,4-Difluorophenyl)-1,1-difluoro-1-(5-((4-methoxybenzyl)oxy)pyridin-2-yl)-3-(1H-tetrazol-1-yl)propan-2-ol], the pest or weed control at 50 ppm in experiment [1] was 80 to 100%. Besides, in experiment [2], the minimal inhibitory concentration (MIC) was at most 0.5 µg/mL. For `OC(Cn1cnnn1)(c1ccc(F)cc1F)C(F)(F)c1ccc(Oc2ccc(Cl)cc2)cn1` (stereo not shown) [Compound 7, 1-(5-(4-Chlorophenoxy)pyridin-2-yl)-2-(2,4-difluorophenyl)-1,1-difluoro-3-(1H-tetrazol-1-yl)propan-2-ol], in that order: 80 to 100% and at most 0.5 µg/mL.

As for `OC(Cn1cnnn1)(c1ccc(F)cc1F)C(F)(F)c1ccc(OCC(F)c2ccc(OC(F)F)cc2)cn1` (stereo not shown) [Compound 124, 1-(5-(2-(4-(difluoromethoxy)phenyl)-2-fluoroethoxy)pyridin-2-yl)-2-(2,4-difluorophenyl)-1,1-difluoro-3-(1H-tetrazol-1-yl)propan-2-ol], the pest or weed control at 50 ppm in experiment [1] lay in the range of 80 to 100%. Moreover, the MIC in experiment [2] is at most 0.5 µg/mL.

Take `OC(Cn1cnnn1)(c1ccc(F)cc1F)C(F)(F)c1ccc(OCc2cccc(C(F)(F)F)c2)cn1` (stereo not shown) [Compound 26, 2-(2,4-Difluorophenyl)-1,1-difluoro-3-(1H-tetrazol-1-yl)-1-(5-((3-(trifluoromethyl)benzyl)oxy)pyridin-2-yl)propan-2-ol]: in experiment [1], the pest or weed control at 50 ppm lay within 80 to 100%. The MIC in experiment [2] was at most 0.5 µg/mL.

As for `N#Cc1ccc(COc2ccc(C(F)(F)C(O)(Cn3cnnn3)c3ccc(F)cc3F)nc2)nc1` (stereo not shown) [Compound 50, 6-(((6-(2-(2,4-Difluorophenyl)-1,1-difluoro-2-hydroxy-3-(1H-tetrazol-1-yl)propyl)pyridin-3-yl)oxy)methyl)nicotinonitrile], the pest or weed control at 50 ppm in experiment [1] is 80 to 100%. Besides, in experiment [2], the MIC is at most 0.5 µg/mL. Turning to `OC(Cn1cnnn1)(c1ccc(F)cc1F)C(F)(F)c1ccc(Oc2ccc(C(F)(F)F)nc2)cn1` (stereo not shown) [Compound 111, 2-(2,4-difluorophenyl)-1,1-difluoro-3-(1H-tetrazol-1-yl)-1-(5-((6-(trifluoromethyl)pyridin-3-yl)oxy)pyridin-2-yl)propan-2-ol], the MIC in experiment [2] is at most 0.5 µg/mL. Same read-out and setting: with `N#Cc1ccc(COc2ccc(C(F)(F)C(O)(Cn3ncnn3)c3ccc(F)cc3F)nc2)nc1` (stereo not shown) [Compound 51, 6-(((6-(2-(2,4-Difluorophenyl)-1,1-difluoro-2-hydroxy-3-(2H-tetrazol-2-yl)propyl)pyridin-3-yl)oxy)methyl)nicotinonitrile] the figure was above 4 µg/mL; with `OC(Cn1cnnn1)(c1ccc(F)cc1F)C(F)(F)c1ccc(SCC(F)(F)F)cn1` (stereo not shown) [Compound 18, 2-(2,4-Difluorophenyl)-1,1-difluoro-3-(1H-tetrazol-1-yl)-1-(5-((2,2,2-trifluoroethyl)thio)pyridin-2-yl)propan-2-ol], 1.5 to 4 µg/mL (≈ 3.21 to 8.56 µM); with `OC(Cn1cnnn1)(c1ccc(F)cc1F)C(F)(F)c1ccc(OCc2ccc(OCC(F)(F)F)cc2)cn1` (stereo not shown) [Compound 20, 2-(2,4-Difluorophenyl)-1,1-difluoro-3-(1H-tetrazol-1-yl)-1-(5-((4-(2,2,2-trifluoroethoxy)benzyl)oxy)pyridin-2-yl)propan-2-ol], at most 0.5 µg/mL.

Take `OC(Cn1cnnn1)(c1ccc(F)cc1F)C(F)(F)c1ccc(OCc2cccc(OCC(F)(F)F)c2)cn1` (stereo not shown) [Compound 25, 2-(2,4-Difluorophenyl)-1,1-difluoro-3-(1H-tetrazol-1-yl)-1-(5-((3-(2,2,2-trifluoroethoxy)benzyl)oxy)pyridin-2-yl)propan-2-ol]: the MIC in experiment [2] is at most 0.5 µg/mL. Turning to `OC(Cn1cnnn1)(c1ccc(F)cc1F)C(F)(F)c1ccc(OCc2ncc(F)cc2F)cn1` (stereo not shown) [Compound 60, 2-(2,4-Difluorophenyl)-1-(5-((3,5-difluoropyridin-2-yl)methoxy)pyridin-2-yl)-1,1-difluoro-3-(1H-tetrazol-1-yl)propan-2-ol], the MIC in experiment [2] fell in the range of 1.5 to 4 µg/mL (≈ 3.02 to 8.06 µM). In the case of `CC#CCOc1ccc(C(F)(F)C(O)(Cn2cnnn2)c2ccc(Cl)cc2F)nc1` (stereo not shown) [Compound 63, 1-(5-(But-2-yn-1-yloxy)pyridin-2-yl)-2-(4-chloro-2-fluorophenyl)-1,1-difluoro-3-(1H-tetrazol-1-yl)propan-2-ol], in experiment [2], the MIC is at most 0.5 µg/mL. Take `CC#CCOc1ccc(C(F)(F)C(O)(Cn2ncnn2)c2ccc(Cl)cc2F)nc1` (stereo not shown) [Compound 64, 1-(5-(But-2-yn-1-yloxy)pyridin-2-yl)-2-(4-chloro-2-fluorophenyl)-1,1-difluoro-3-(2H-tetrazol-2-yl)propan-2-ol]: the MIC in experiment [2] is above 4 µg/mL.

In the case of `OC(Cn1cnnn1)(c1ccc(F)cc1F)C(F)(F)c1ccc(Oc2nc3ccc(Cl)cc3s2)cn1` (stereo not shown) [Compound 110, 1-(5-((6-chlorobenzo[d]thiazol-2-yl)oxy)pyridin-2-yl)-2-(2,4-difluorophenyl)-1,1-difluoro-3-(1H-tetrazol-1-yl)propan-2-ol], in experiment [2], the MIC is at most 0.5 µg/mL.
